Key:
[1] = system: Diet-Induced Obese (DIO) mice; test: Pilot study of BGE-105 in aged DIO mice treated with semaglutide (Example 1); format: in vivo
Description: Endpoints and measurements used to assess effects included: • Body Weight, Clinical Evaluation & Body Condition Score; • Group Food Intake, Water Intake; • Fed Glucose; • Body composition by Echo-MRI; • Baseline and endpoint grid hang tests; and • Endpoint tissue harvest.
25-month-old (aged) C57BL/6 female mice were used in this study. Diet for 25-month-old C57BL/6 mice included lean control D12450B (10 kcal % fat), or a diet induced-obesity (DIO) diet D12492 (60 kcal % fat) (Research Diets, Inc.). The study duration was 37 days. Treatment started on Day 0 and ended on Day 35-36.
Semaglutide was purchased from MCE (Cat No. HY-114118/CS-0069903)
Mice from all Groups (1-5) were measured with fed glucose, and body weight and body composition for randomization.
Body weight, group food intake, group water intake, body composition and grid hang tests were measured and monitored during the study.
On the day of necropsy, blood plasma and tissue samples were collected.

Diet-Induced Obese Mice = test: Combination of BAL-1480 and tirzepatide in obese mice (Example 6); format: in vivo
Description: To measure the effect of another APJ agonist, BAL-1480, compound 13 as described by Narayanan et al. in J. Med. Chem. 2021, 64, 3006-3025, on weight loss or body composition in Diet-Induced Obese Mice by GLP-1 receptor agonist tirzepatide.
Measurement used and justifications include: body weight, food intake, water intake, non-fasted blood glucose, and body composition by Echo-MRI.
C57BL/6 obese male mice from Jax and housed to 9-months old were fed with a lean control diet D12450B (10 kcal % fat) and a diet-induced obesity (DIO) diet D12492 (60 kcal % fat) (Research Diets, Inc.).
Male DIO mice were acclimated to a single house cage for two weeks. Body weight, morning non-fasted blood glucose, and body composition were measured for randomization. Target DIO weight range at randomization 51.4-67.5 g. After randomization, mice were given treatment as the following groups (All groups were paired with relative dosing s.c. vehicle (20 mM citrate buffer at pH 7.0, 4 mL/kg) or drinking water with addition of 5 mM Sucralose (5 mM Sucralose, pH 3) to insure water consumption despite possible taste alterations from drug).
Study groups • 0. Lean ctrl, n=7 • 1. DIO+VEH (vehicle), n=7 • 2. DIO+BAL-1480 (0.25 g/L in drug water), n=7 • 3. DIO+BAL-1480 (1 g/L in drug water), n=7 • 4. DIO+tirzepatide (10 nmol/kg), n=7 • 5. DIO+tirzepatide (10 nmol/kg)+BAL-1480 (0.25 g/L in drug water), n=7 • 6. DIO+tirzepatide (10 nmol/kg)+BAL-1480 (1 g/L in drug water), n=7
(0) Lean control: age matched lean mice control (5 mM sucralose water+vehicle, s.c., every 3 days); (1) DIO+VEH: diet-induced obese mice treated with vehicle control (5 mM sucralose water, pH 3+vehicle, s.c., every 3 days); (2) DIO+BAL-1480 (0.25 g/L in drug water): diet-induced obese mice treated with BAL-1480 at 0.25 g/L; (3) DIO+BAL-1480 (1 g/L in drug water): diet-induced obese mice treated with BAL-1480 at 1 g/L; (4) DIO+tirzepatide (10 nmol/kg): diet-induced obese mice treated with tirzepatide at 10 nmol/kg, s.c., every 3 days+5 mM sucralose water, pH 3; (5) DIO+tirzepatide (10 nmol/kg)+BAL-1480 (0.25 g/L in drug water): diet-induced obese mice treated with tirzepatide at 10 nmol/kg in combination with BAL-1480 at 0.25 g/L; (6) DIO+tirzepatide (10 nmol/kg)+BAL-1480 (1 g/L in drug water): diet-induced obese mice treated with tirzepatide at 10 nmol/kg in combination with BAL-1480 at 1 g/L.
Tirzepatide (hydrochloride) was purchased from MCE (Cat No. HY—P1731B/CS-0107005). Mw=4849.91, 10 nmol/kg=0.0485 mg/kg, 4 mL/kg, drug concentration: 0.012 mg/mL in s.c. vehicle, every 3 days. BAL-1480 0.25 g/L or 1 g/L was prepared in drinking water with 5 mM Sucralose, pH 3.
Body weight, food intake, water intake, body composition and morning non-fasted blood glucose were measured during the entire study. After 20 days of treatment and measurement, mice were taken down to harvest tissues for further downstream analysis. On the day of necropsy, blood plasma and organ/tissue samples were collected. Tissue samples were weighed and processed for further tests. Terminal cardiac blood samples (Heparin plasma) were obtained.
Data were expressed as mean±SEM and statistically analyzed by 1-way or 2-way ANOVA

[2] = BAL-1480 monotherapy 1 g/L, both combination groups, vs tirzepatide monotherapy

Compound	Muscle function, grid hang test (latency before mice fell from the grid) ([1]; semaglutide 100 nmol/kg, BGE-105 1.1 mg/mL, combination compared to either agent alone)	Weight of perigonadal fat at study endpoint ([1]; semaglutide 100 nmol/kg, BGE-105 1.1 mg/mL, combination loss statistically significant)	Quadriceps weight as a percentage of total body weight at study endpoint ([1]; semaglutide 100 nmol/kg, BGE-105 1.1 mg/mL, vs DIO control mice)	neutrophil gelatinase-associated lipocalin (NGAL) level at study endpoint ([1]; vs DIO control mice)	Fatty liver weight and fat tissue weights at terminal harvest (Diet-Induced Obese Mice; BAL-1480 1 g/L and combination groups vs tirzepatide monotherapy)	Muscle to body weight percentages at terminal harvest (Diet-Induced Obese Mice; BAL-1480 1 g/L and combination groups, to similar level as lean control mice)	Fat mass percentage (Diet-Induced Obese Mice; [2])	Lean mass percentage (Diet-Induced Obese Mice; [2])	Lean/fat ratio (Diet-Induced Obese Mice; [2])	Absolute fat mass (Diet-Induced Obese Mice; BAL-1480 monotherapy 1 g/L, combinations tirzepatide 10 nmol/kg + BAL-1480 0.25 or 1 g/L, vs tirzepatide monotherapy)	Weight loss (Diet-Induced Obese Mice; obese mice, BAL-1480 0.25 and 1 g/L in drinking water)
semaglutide [reference compound]	increased muscle function	statistically insignificant loss in perigonadal fat	increased quadricep weight as a percentage of total body weight, but the increases did not achieve statistical significance	decreased plasma NGAL level	–	–	–	–	–	–	–
COc1cccc(OC)c1-c1cc(C(=O)N[C@@H](CCN2CCCCC2)CC(=O)NC2CCC2)nn1C1CCCC1 [BAL-1480]	–	–	–	–	reduced the fatty liver weight and fat tissue weights	dramatically increased the muscle to body weight percentages	significant decrease of fat mass percentage	significant increase of lean mass percentage	significant increase of lean/fat ratio	significant reduction of absolute fat mass	dose-dependent effect on weight loss
